Results published in patent US20100210602A1, “PhoU (PerF), A P[…] INVOLVED IN [sequence] FORMATION AND TOLERANCE TO MULTIPLE ANTIBIOTICS AND [sequence] AS A DRUG TARGET FOR [sequence] BACTERIA” (priority 2006, published 2010).
In brackets after ≈: the same amount, converted by molar mass. Like-named read-outs stand apart in the source and are kept apart here.

Legend:
[1] = test system: H37Rv; experiment: microbe, parasite or virus in culture; assay type: cell-based, M. tuberculosis; settings: Mycobacterium tuberculosis
[2] = test system: parent strain H37Rv; assay type: cell-based, M. tuberculosis
[3] = test system: H37Rv; experiment: microbe, parasite or virus in culture; assay type: cell-based, M. tuberculosis; settings: Mycobacterium tuberculosis, 240 h
[4] = target: PhoY2 (Mycobacterium tuberculosis, UniProt P9WI95); experiment: EnzChek phosphatase assay, FDA approved compound library screen; assay type: biochemical, M. tuberculosis; settings: for inhibition of PhoY2 enzyme activity in library screen: 50 μM final concentration, 30 min, 60 min and overnight
PhoY2, sequence (P9WI95 whole entry): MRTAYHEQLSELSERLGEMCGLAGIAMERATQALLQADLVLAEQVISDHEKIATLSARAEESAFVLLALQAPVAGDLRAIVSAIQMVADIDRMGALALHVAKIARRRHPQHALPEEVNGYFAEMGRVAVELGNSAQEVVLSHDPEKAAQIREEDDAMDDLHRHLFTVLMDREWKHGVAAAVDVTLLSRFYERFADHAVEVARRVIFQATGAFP
Method: The FDA approved compound library consisting of about 3000 clinical compounds (50 μM final concentration) was screened for inhibitory activity for M. tuberculosis PhoU homolog PhoY2 for phosphatase activity using the EnzChek phosphatase assay kit in a 96 well plate format. The assay was run for 30 min, 60 min and overnight when the plates were read in a fluorescence plate reader (Perkin Elmer). Aurintricarboxylic acid, a known phosphatase inhibitor, was included as a positive control.

[5] = test system: wild type strain W3110; experiment: microbe, parasite or virus in culture; assay type: cell-based, E. coli; settings: for CFU remaining: stationary phase
[6] = test system: PhoU mutant JHU-313; assay type: cell-based, E. coli
[7] = test system: PhoU mutant; experiment: Weak acid susceptibility on LB agar pH 5.0; assay type: cell-based, E. coli; settings: salicylic acid 80 μg/ml, pyrazinoic acid 230 μg/ml, overnight 37° C.
[8] = test system: wild type strain W3110; experiment: Weak acid susceptibility on LB agar pH 5.0; assay type: cell-based, E. coli; settings: salicylic acid 80 μg/ml, pyrazinoic acid 230 μg/ml, overnight 37° C.
[9] = target: T1, PhoY1 (Mycobacterium tuberculosis, UniProt P9WI97); experiment: EnzChek phosphatase assay; assay type: biochemical, M. tuberculosis; settings: pH 5.5
T1 sequence (P9WI97 1-221): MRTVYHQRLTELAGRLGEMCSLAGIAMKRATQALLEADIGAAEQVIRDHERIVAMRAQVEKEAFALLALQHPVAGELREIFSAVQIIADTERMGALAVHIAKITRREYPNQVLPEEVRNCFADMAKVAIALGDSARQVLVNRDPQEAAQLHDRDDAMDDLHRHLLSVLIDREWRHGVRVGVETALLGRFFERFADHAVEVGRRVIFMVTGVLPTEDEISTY

[10] = target: T2, E. coli PhoU (Escherichia coli, UniProt P0A9K7); experiment: EnzChek phosphatase assay, DiFMUP substrate, pH 5.5; assay type: biochemical; settings: pH 5.5, DiFMUP
T2 construct: His; made in house
T2 sequence (P0A9K7 whole entry): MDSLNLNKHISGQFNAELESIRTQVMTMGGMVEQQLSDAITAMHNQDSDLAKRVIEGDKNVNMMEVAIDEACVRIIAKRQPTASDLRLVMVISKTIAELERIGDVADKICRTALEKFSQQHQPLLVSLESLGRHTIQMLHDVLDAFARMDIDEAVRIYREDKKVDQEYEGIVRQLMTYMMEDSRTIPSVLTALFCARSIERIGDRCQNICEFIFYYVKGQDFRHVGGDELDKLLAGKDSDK
Method: In order to test PhoU for phosphatase activity, purified PhoU protein was analyzed using the EnzChek phosphatase assay kit (Invitrogen, Molecular Probes). Phosphatase activity was continuously monitored at acidic pH 5.5 and 6,8-difluoro-4-methylumbelliferyl phosphate (DiFMUP) was used as the substrate according to manufacturer's instruction.
Since most phosphatases have a metal requirement for activity, using either Mg^2+ or Zn^2+, the effects of various metal ions on the PhoU phosphatase enzyme activity were examined at acidic pH 5.5 and using DiFMUP as a substrate.
Phosphatase assays were performed using purified recombinant wild type and mutant PhoU proteins.

[11] = test system: wild type strain W3110; assay type: cell-based, E. coli; settings: 20 h after 1.5 h ampicillin pre-exposure; ampicillin 100, gentamicin 20, trimethoprim 16, norfloxacin 5 μg/ml
[12] = test system: JHU-313 containing pPhoU; experiment: Kirby-Bauer paper disc assay, zone inhibition
Method: (§1) The sensitivity of the bacterial strains to antibiotics or peroxide was determined by Kirby-Bauer's paper disc assay as measured by zone inhibition in millimeters.
(§2) The sensitivity of bacterial strains to antibiotics or stresses was also assessed by the Kirby-Bauer method (2) using paper discs. E. coli bacteria were grown to log phase (10^8 bacteria) in LB broth. An inoculum from this culture was spread across the surfaces of LB plates to provide confluent growth. Nitrocellulose discs (7 mm in diameter) soaked with appropriate antibiotics or stress agents (100 mM H2O2, were placed on the agar surface). After incubation at 37° C. for 48 h, the diameter of the zone of growth inhibition was measured and scored according to the size of the zone of inhibition, which is directly proportional to the sensitivity of the organism to the antibiotic.

[13] = test system: JHU-313 containing pVector; experiment: MIC/MBC by serial two-fold dilutions in LB broth; assay type: cell-based, E. coli; settings: 16 h at 37° C.
[14] = test system: PhoU mutant (JHU-313); experiment: MIC/MBC by serial two-fold dilutions in LB broth; assay type: cell-based, E. coli; settings: 16 h at 37° C.
[15] = test system: W3110
Method: as §1, §2

[16] = test system: PhoU mutant (JHU-313); experiment: Sequential antibiotic exposure of ampicillin persisters (CFU); assay type: cell-based, E. coli; settings: 20 h after 1.5 h ampicillin pre-exposure; ampicillin 100, gentamicin 20, trimethoprim 16, norfloxacin 5 μg/ml
[17] = test system: JHU-313 containing pVector; experiment: Kirby-Bauer paper disc assay, zone inhibition
Method: as §1, §2

[18] = test system: JHU-313 containing pPhoU; experiment: MIC/MBC by serial two-fold dilutions in LB broth; assay type: cell-based, E. coli; settings: 16 h at 37° C.
[19] = test system: wild type strain W3110; experiment: microbe, parasite or virus in culture; assay type: cell-based, E. coli; settings: LB broth, 16 h at 37° C.
[20] = test system: JHU-313; experiment: Kirby-Bauer paper disc assay, zone inhibition
Method: as §1, §2

[21] = test system: M. tuberculosis H37Rv; experiment: Killing of old stationary phase cells by PhoY2 inhibitors with TB drugs (CFU); assay type: cell-based; settings: one and two week exposure, 37° C.
Method: PhoY2 phosphatase activity inhibitors identified in the screen were tested for their ability to decrease persister formation in M. tuberculosis. […] After one and two week exposure, CFU (colony forming unit) was measured.

Compound: CO[C@H]1/C=C/O[C@@]2(C)Oc3c(C)c(O)c4c(O)c(c(/C=N/N5CCN(C)CC5)c(O)c4c3C2=O)NC(=O)/C(C)=C\C=C\[C@H](C)[C@H](O)[C@@H](C)[C@@H](O)[C@@H](C)[C@H](OC(C)=O)[C@@H]1C [RIF, rifampin]
- MBC [1]: 0.2 µg/mL (≈ 0.243 µM)
- MIC [1]: 0.1 µg/mL (≈ 0.122 µM)
- CFU/ml 3 day ([2]; 8 μg/ml): 3.37 × 10^5 CFU/ml
- MIC ([3]; 10 days at 37° C.): 0.2 µg/mL (≈ 0.243 µM)

Compound: C1CNCCN1 [piperazine]
- inhibition of PhoY2 enzyme activity in library screen [4]: inhibit PhoY2 enzyme activity

Compound: NC(=O)c1cnccn1 [PZA, pyrazinamide]
- MBC ([1]; pH 5.9, read-out: MBC): 400 µg/mL (≈ 3250 µM)
- MIC ([1]; pH 5.9, read-out: MIC): 200 µg/mL (≈ 1620 µM)
- MIC ([5]; Escherichia coli, W3110, normal growing E. coli, pH 5.0): > 2000 µg/mL
- CFU left ([5]; pH 5): about 10^6 CFU/ml
- CFU remaining ([5]; 500 μg/ml, pH 5.0, 1 week): 5×10^4 CFU/ml
- CFU remaining ([5]; 2 mg/ml, pH 5.0, day 6): 6.7×10^6 CFU/ml
- CFU/ml 3 day ([2]; 200 μg/ml): 3.1 × 10^5 CFU/ml
- CFU/ml 9 day ([2]; 200 μg/ml): 5.3 × 10^3 CFU/ml
- MIC ([3]; pH 5.6, pH5.6, 10 days at 37° C.): 200 µg/mL (≈ 1620 µM)
- killing of culture ([6]; pH 5): completely killed
- viable bacteria left ([6]; stationary phase, 500 μg/ml, pH 5.0, 1 week): no viable bacteria left
- sterilization of culture ([6]; stationary phase, 2 mg/ml, pH 5.0, day 6): completely sterilized

Compound: CN1CCCN=C1/C=C/c1cccs1 [pyrantel pamoate]
- inhibition of PhoY2 enzyme activity in library screen [4]: inhibit PhoY2 enzyme activity

Compound: O=C(O)c1ccccc1O [salicylic acid]
- growth on LB agar with weak acid [7]: lack of growth at ⅓ MIC
- growth on LB agar with weak acid [8]: resistant

Compound: phosphate
- effect on PhoY1 phosphatase activity [9]: inhibited
- effect on PhoY2 phosphatase activity ([4]; pH 5.5): inhibited
- effect on PhoU phosphatase activity [10]: inhibit the phosphatase activity

Compound: gentamicin
- CFU after second antibiotic exposure [11]: 5 × 10^5 CFU/ml
- zone inhibition ([12]; 0.1 μg/ml): 17 mm
- zone inhibition ([12]; 0.5 μg/ml): 22 mm
- zone inhibition ([12]; 2 μg/ml): 24 mm
- zone inhibition ([12]; 10 μg/ml): 28 mm
- MBC [13]: 2.5 µg/mL
- MIC [13]: 1.25 µg/mL
- MBC [14]: 2.5 µg/mL
- MIC [14]: 1.25 µg/mL
- zone inhibition ([15]; 0.1 μg/ml): 14 mm
- zone inhibition ([15]; 0.5 μg/ml): 20 mm
- zone inhibition ([15]; 2 μg/ml): 22 mm
- zone inhibition ([15]; 10 μg/ml): 25 mm
- CFU after second antibiotic exposure [16]: 2 × 10^3 CFU/ml
- zone inhibition ([17]; 0.1 μg/ml): 22 mm
- zone inhibition ([17]; 0.5 μg/ml): 29 mm
- zone inhibition ([17]; 2 μg/ml): 30 mm
- zone inhibition ([17]; 10 μg/ml): 31 mm
- MBC [18]: 5 µg/mL
- MIC [18]: 2.5 µg/mL
- MBC [19]: 5 µg/mL
- MIC [19]: 2.5 µg/mL
- zone inhibition ([20]; 0.1 μg/ml): 20 mm
- zone inhibition ([20]; 0.5 μg/ml): 22 mm
- zone inhibition ([20]; 2 μg/ml): 26 mm
- zone inhibition ([20]; 10 μg/ml): 27 mm

Compound: O=C(O)c1cnccn1 [pyrazinoic acid]
- growth on LB agar with weak acid [7]: lack of growth at ⅓ MIC
- growth on LB agar with weak acid [8]: resistant

Compound: Pyrantel tartrate
- enhancement of INH, RIF or PZA activity [21]: could enhance the activity of INH, RIF or PZA

Compound: NNC(=O)c1ccncc1 [INH, isoniazid]
- MIC ([3]; 10 days at 37° C.): 0.2 µg/mL (≈ 1.46 µM)
